Reference: patent US10501421B1, “Substituted benzimidazoles as modulators of Ras signaling” (VANDERBILT UNIVERSITY, priority 2017, dated 2019)
Where a name gives a salt, the structure may show the parent alone.

molecular target: Ras GEF SOS (Son of Sevenless) (Homo sapiens, UniProt Q07889); experiment: SOS-mediated nucleotide exchange on Ras (BODIPY-GDP fluorescence); assay type: biochemical; settings: SOS-mediated exchange of BODIPY-GDP for GTP on Ras
Protocol: Compounds of the present invention were tested for their ability to modify the rate at which Ras exchanges a labeled nucleotide guanosine diphosphate (GDP) analog for guanosine triphosphate (GTP). Briefly, test compounds, then GTP and the Ras GEF SOS (Son of Sevenless) are added to a buffered solution containing Ras protein loaded with BODIPY-GDP. Changes in fluoresence indicating exchange of the labeled GDP for GTP are monitored over time. Raw fluorescence data was fit to a single exponential decay function and derived rates were plotted as mean values. EC50 values were calculated by plotting mean derived rates as a function of compound concentration and fit using a four-parameter dose-response curve. This assay is performed in a method analogous to the assay disclosed in: Burns, M. C.; Sun, Q.; Daniels, R. N.; Camper, D. V.; Kennedy, J. P.; Phan, J.; Olejniczak, E. O.; Lee, T.; Waterson, A. G.; Rossanese, O. W.; Fesik, S. W. “Approach for targeting Ras with small molecules that activate SOS-mediated nucleotide exchange” Proc. Natl. Acad. Sci. 2014; 11(9): 3401-3406. PMCID: PMC3948241.

Ras GEF SOS (Son of Sevenless), sequence (P01112 1-166 partner limits assumed, one chain of several): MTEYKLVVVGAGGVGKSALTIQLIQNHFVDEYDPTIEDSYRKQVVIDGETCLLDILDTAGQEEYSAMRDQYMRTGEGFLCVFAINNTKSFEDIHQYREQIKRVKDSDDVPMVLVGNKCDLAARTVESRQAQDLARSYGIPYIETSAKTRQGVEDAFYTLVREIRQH

Compound | EC50
Cc1cc2c(nc(NCCN)n2Cc2ccc(F)c(Cl)c2)c(CN2CCCC2)c1C [Example 146, N^1-(1-(3-chloro-4-fluorobenzyl)-5,6-dimethyl-4-(pyrrolidin-1-ylmethyl)-1H-benzo[d]imidazol-2-yl)ethane-1,2-diamine trifluoroacetate] | 1 to 5 µM
Fc1ccc(Cn2c(N3CCOCC3)nc3ccccc32)cc1Cl [Example 8, 4-(1-(3-chloro-4-fluorobenzyl)-1H-benzo[d]imidazol-2-yl)morpholine] | 30 to 100 µM
Clc1ccc(Cn2c(N3CCNCC3)nc3ccccc32)cc1 [Example 11, 1-(4-chlorobenzyl)-2-(piperazin-1-yl)-1H-benzo[d]imidazole trifluoroacetate] | 1 to 5 µM
NCCNc1nc2ncccc2n1Cc1ccc(F)cc1 [Example 250, N^1-(1-(4-fluorobenzyl)-1H-imidazo[4,5-b]pyridin-2-yl)ethane-1,2-diamine] | 5 to 30 µM
Cc1cc2c(nc(N3CCNCC3)n2Cc2ccc(F)c(C)c2)c(CN2CCOCC2)n1 [Example 237, 4-((1-(4-fluoro-3-methylbenzyl)-6-methyl-2-(piperazin-1-yl)-1H-imidazo[4,5-c]pyridin-4-yl)methyl)morpholine] | 30 to 100 µM
Cc1ccc2nc([C@H](N)CO)n(Cc3cccc(Cl)c3)c2c1 [Example 271, (2S)-2-amino-2-[1-[(3-chlorophenyl)methyl]-6-methylbenzimidazol-2-yl]ethanol] | 30 to 100 µM
Cc1cnc2nc(N3CCNCC3)n(Cc3ccc(F)c(Cl)c3)c2c1 [Example 242, 1-(3-chloro-4-fluorobenzyl)-6-methyl-2-(piperazin-1-yl)-1H-imidazo[4,5-b]pyridine] | 1 to 5 µM
NCCc1cccc2c1nc(N1CCNCC1)n2Cc1cc(F)cc(F)c1 [Example 99, 2-(1-(3,5-difluorobenzyl)-2-(piperazin-1-yl)-1H-benzo[d]imidazol-4-yl)ethan-1-amine trifluoroacetate] | 5 to 30 µM
NCc1ccc2c(c1)nc(N1CCNCC1)n2Cc1ccc(F)c(Cl)c1 [Example 281, [1-[(3-chloro-4-fluorophenyl)methyl]-2-piperazin-1-ylbenzimidazol-5-yl]methanamine] | 5 to 30 µM
CC(C)N1CC[C@@H](C(=O)c2ccccc2)[C@H]1c1cc(Cl)cc2c1nc(N1CCNCC1)n2Cc1ccc(F)c(Cl)c1 [Example 152, ((2S,3R)-2-(6-chloro-1-(3-chloro-4-fluorobenzyl)-2-(piperazin-1-yl)-1H-benzo[d]imidazol-4-yl)-1-isopropylpyrrolidin-3-yl)(phenyl)methanone trifluoroacetate] | 1 to 5 µM
Cc1cc2c(nc(N3CCNCC3)n2Cc2ccc(F)c(C)c2)c(CN2CCCC2)n1 [Example 236, 1-(4-fluoro-3-methylbenzyl)-6-methyl-2-(piperazin-1-yl)-4-(pyrrolidin-1-ylmethyl)-1H-imidazo[4,5-c]pyridine] | 30 to 100 µM
Cc1cc2nc(NCCN3CCOCC3)n(Cc3ccc(F)cc3)c2cc1C [Example 29, 1-(4-fluorobenzyl)-5,6-dimethyl-N-(2-morpholinoethyl)-1H-benzo[d]imidazol-2-amine trifluoroacetate] | 30 to 100 µM
Fc1ccc(Cn2c(N3CCNCC3)nc3ncccc32)cc1 [Example 249, 1-(4-fluorobenzyl)-2-(piperazin-1-yl)-1H-imidazo[4,5-b]pyridine] | 5 to 30 µM
Cc1ccc2c(n1)nc(NCCN)n2Cc1ccc(F)c(Cl)c1 [Example 257, N^1-(1-(3-chloro-4-fluorobenzyl)-5-methyl-1H-imidazo[4,5-b]pyridin-2-yl)ethane-1,2-diamine] | 5 to 30 µM
Fc1ccc(Cn2c(N3CCOCC3)nc3ccccc32)cc1 [Example 9, 4-(1-(4-fluorobenzyl)-1H-benzo[d]imidazol-2-yl)morpholine] | 30 to 100 µM
NCCc1cccc2c1nc(N1CCNCC1)n2Cc1ccc(C(F)(F)F)cc1 [Example 100, 2-(2-(piperazin-1-yl)-1-(4-(trifluoromethyl)benzyl)-1H-benzo[d]imidazol-4-yl)ethan-1-amine trifluoroacetate] | 1 to 5 µM
Cc1cc2c(nc(NCCN)n2Cc2cccc(C#N)c2)c(-c2ccccc2Cl)c1C [Example 117, 3-((2-((2-aminoethyl)amino)-4-(2-chlorophenyl)-5,6-dimethyl-1H-benzo[d]imidazol-1-yl)methyl)benzonitrile trifluoroacetate] | 1 to 5 µM
Oc1ccc(-c2cccc3c2nc(N2CCNCC2)n3Cc2ccc(F)c(Cl)c2)cc1 [Example 264, 4-[1-[(3-chloro-4-fluorophenyl)methyl]-2-piperazin-1-ylbenzimidazol-4-yl]phenol] | 5 to 30 µM
Cc1cc2nc(N)n(Cc3ccc(Cl)cc3)c2cc1C [Example 5, 1-(4-chlorobenzyl)-5,6-dimethyl-1H-benzo[d]imidazol-2-amine] | 30 to 100 µM

molecular target: T1, Son of Sevenless (SOS) (Homo sapiens, UniProt Q07889); experiment: Binding to SOS, fluorescence polarization anisotropy (FPA) probe displacement; settings: displacement of FITC-conjugated probe (Example 285), affinity calculated from IC50
T1 sequence (Q07889 564-1049 limits assumed): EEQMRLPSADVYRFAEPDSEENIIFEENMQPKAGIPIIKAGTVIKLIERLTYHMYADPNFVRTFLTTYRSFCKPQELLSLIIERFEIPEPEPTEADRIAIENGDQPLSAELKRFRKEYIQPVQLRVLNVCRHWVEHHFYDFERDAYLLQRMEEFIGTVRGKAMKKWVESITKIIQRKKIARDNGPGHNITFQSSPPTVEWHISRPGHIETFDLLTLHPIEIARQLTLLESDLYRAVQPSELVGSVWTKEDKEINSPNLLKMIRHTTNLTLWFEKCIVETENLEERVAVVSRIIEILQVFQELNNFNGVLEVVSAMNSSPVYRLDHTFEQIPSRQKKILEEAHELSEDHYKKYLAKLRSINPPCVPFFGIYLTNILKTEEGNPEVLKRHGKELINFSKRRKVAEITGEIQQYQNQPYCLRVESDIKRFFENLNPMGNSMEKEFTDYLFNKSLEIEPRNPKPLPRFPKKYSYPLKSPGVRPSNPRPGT
Protocol: Compounds of the present invention were tested for their ability to bind to the Ras guanine exchange factor (GEF) Son of Sevenless (SOS). Binding to SOS was measured using a Fluorescence polarization anisotropy (FPA) assay that assesses the ability of a test compound to displace a fluorescent FITC-conjugated compound (Example 285). Briefly, the labeled probe compound is incubated with SOS in buffer. Changes in anisotropy indicative of displacement of the labeled probe for a test compound are assessed over a dose range of test compound. Data was analyzed by plotting fluorescence anisotropy values as a function of compound concentration. IC50 values were determined using a four-parameter dose-response (variable slope) and binding affinities were calculated from this IC50 value. This assay is performed in a method analogous to the assay disclosed in: Burns, M. C.; Sun, Q.; Daniels, R. N.; Camper, D. V.; Kennedy, J. P.; Phan, J.; Olejniczak, E. O.; Lee, T.; Waterson, A. G.; Rossanese, O. W.; Fesik, S. W. “Approach for targeting Ras with small molecules that activate SOS-mediated nucleotide exchange” Proc. Natl. Acad. Sci. 2014; 11(9): 3401-3406. PMCID: PMC3948241.

Compound | Ki
Cc1cc2nc(N3C[C@@H](C)N[C@@H](C)C3)n(Cc3cc(C)c(F)c(C)c3)c2cc1C [Example 336, 2-((3S,5R)-3,5-dimethylpiperazin-1-yl)-1-(4-fluoro-3,5-dimethylbenzyl)-5,6-dimethyl-1H-benzo[d]imidazole] | 1 to 5 µM
Cc1cc(O[C@H]2CCNC2)c2nc(N3CCNCC3)n(Cc3cc(C)c(F)c(C)c3)c2c1 [Example 200, (S)-1-(4-fluoro-3,5-dimethylbenzyl)-6-methyl-2-(piperazin-1-yl)-4-(pyrrolidin-3-yloxy)-1H-benzo[d]imidazole] | > 5 µM
N[C@@H](Cc1ccccc1)c1cc(Cl)cc2c1nc(N1CCNCC1)n2Cc1ccc(F)c(Cl)c1 [Example 166, (S)-1-(6-chloro-1-(3-chloro-4-fluorobenzyl)-2-(piperazin-1-yl)-1H-benzo[d]imidazol-4-yl)-2-phenylethan-1-amine trifluoroacetate] | 0.5 to 1 µM
Cc1cc(OCC2CCNCC2)c2nc(N3CCNCC3)n(Cc3cc(C)c(F)c(C)c3)c2c1 [Example 202, 1-(4-fluoro-3,5-dimethylbenzyl)-6-methyl-2-(piperazin-1-yl)-4-(piperidin-4-ylmethoxy)-1H-benzo[d]imidazole] | 0.5 to 1 µM
Cc1cc(OCCNCCO)c2nc(N3CCNCC3)n(Cc3cc(C)c(F)c(C)c3)c2c1 [Example 199, 2-((2-((1-(4-fluoro-3,5-dimethylbenzyl)-6-methyl-2-(piperazin-1-yl)-1H-benzo[d]imidazol-4-yl)oxy)ethyl)amino)ethan-1-ol] | 0.5 to 1 µM
Cc1cc2nc(S(=O)(=O)CCN)n(Cc3ccc(F)c(Cl)c3)c2cc1C [Example 211, 2-((1-(3-chloro-4-fluorobenzyl)-5,6-dimethyl-1H-benzo[d]imidazol-2-yl)sulfonyl)ethan-1-amine trifluoroacetate] | > 5 µM
CCCNC(=O)c1cnn(CC(C)C)c1-c1cc(C)cc2c1nc(N1CCNCC1)n2Cc1cc(C)c(F)c(C)c1 [Example 181, 5-(1-(4-fluoro-3,5-dimethylbenzyl)-6-methyl-2-(piperazin-1-yl)-1H-benzo[d]imidazol-4-yl)-1-isobutyl-N-propyl-1H-pyrazole-4-carboxamide trifluoroacetate] | 0.5 to 1 µM
Cc1cc(N2CCN(C(C)C)CC2)c2nc(N3CCNCC3)n(Cc3cc(C)c(F)c(C)c3)c2c1 [Example 194, 1-(4-fluoro-3,5-dimethylbenzyl)-4-(4-isopropylpiperazin-1-yl)-6-methyl-2-(piperazin-1-yl)-1H-benzo[d]imidazole trifluoroacetate] | 0.5 to 1 µM
